Data from PubChem BioAssay AID330 (DTP/NCI, 2004).
Values joined by “and” are separate entries in the source; they are usually repeats but may differ in a detail not shown here. Equal entries are not always repeated. Inconclusive results and toxic doses are left out.

System: P388 leukemia ip, CD2F1 mice, survival T/C
Assay: NCI In Vivo Anticancer Drug Screen. Data for tumor model P388 Leukemia (intraperitoneal) in CD2F1 (CDF1) mice
Conditions: endpoint: median survival time, higher = longer survival
Procedure, shortened: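 Mice carrying the transplanted tumor received test compound or vehicle. Survival was recorded in each group, and the value is the treated-group measurement divided by that of the vehicle-treated control group.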

[1] = dose: 50.0 mg/kg/injection, schedule: Q01DX009 (ip), vehicle: Klucel (hydroxypropylcellulose) (HPC)
[2] = dose: 100.0 mg/kg/injection, schedule: Q01DX009 (ip), vehicle: Klucel (hydroxypropylcellulose) (HPC)
[3] = dose: 200.0 mg/kg/injection, schedule: Q01DX009 (ip), vehicle: Klucel (hydroxypropylcellulose) (HPC)
[4] = dose: 50.0 mg/kg/injection, schedule: Q01DX005 (ip), vehicle: saline with Tween-80
[5] = dose: 100.0 mg/kg/injection, schedule: Q01DX005 (ip), vehicle: saline with Tween-80
[6] = dose: 200.0 mg/kg/injection, schedule: Q01DX005 (ip), vehicle: saline with Tween-80
[7] = dose: 100.0 mg/kg/injection, schedule: Q01DX009 (ip), vehicle: saline with Tween-80
[8] = dose: 200.0 mg/kg/injection, schedule: Q01DX009 (ip), vehicle: saline with Tween-80
[9] = dose: 50.0 mg/kg/injection, schedule: Q01DX005 (ip), vehicle: Klucel (hydroxypropylcellulose) (HPC)

CSCCC(NP(=S)(c1ccccc1)c1ccccc1)C(=O)O (centres undefined)
T/C [1]: 104 % of control and 107 % of control
T/C [2]: 107 % of control
T/C [3]: 101 % of control and 94 % of control

CC(=O)N(C)c1ccc2c(c1)C(=O)c1ccccc1-2
T/C [4]: 102 % of control
T/C [5]: 95 % of control
T/C [6]: 92 % of control

CC(=O)Nc1ccc(Nc2cc(S(=O)(=O)O)c(N)c3c2C(=O)c2ccccc2C3=O)cc1
T/C (dose: 60.0 mg/kg/injection, schedule: Q01DX005 (ip), vehicle: saline): 92 % of control
T/C (dose: 120.0 mg/kg/injection, schedule: Q01DX005 (ip), vehicle: saline): 95 % of control
T/C (dose: 240.0 mg/kg/injection, schedule: Q01DX005 (ip), vehicle: saline): 92 % of control

O=C(Oc1ccccc1)C(Cc1ccccc1)NC(=O)C(F)(F)F (centres undefined)
T/C (dose: 50.0 mg/kg/injection, schedule: Q01DX009 (ip), vehicle: saline with Tween-80): 108 % of control
T/C [7]: 99 % of control
T/C [8]: 103 % of control

Cc1ccc(N2C(=O)CC3(CCCCC3)C2=O)cc1[N+](=O)[O-]
T/C (dose: 100.0 mg/kg/injection, schedule: Q04DX003 (ip), vehicle: Klucel (hydroxypropylcellulose) (HPC)): 93 % of control
T/C (dose: 200.0 mg/kg/injection, schedule: Q04DX003 (ip), vehicle: Klucel (hydroxypropylcellulose) (HPC)): 97 % of control
T/C (dose: 400.0 mg/kg/injection, schedule: Q04DX003 (ip), vehicle: Klucel (hydroxypropylcellulose) (HPC)): 99 % of control

C[Si](C)(CCCOCC1CO1)O[Si](C)(C)CCCOCC1CO1 (centres undefined)
T/C [7]: 100 % of control
T/C [8]: 101 % of control
T/C (dose: 400.0 mg/kg/injection, schedule: Q01DX009 (ip), vehicle: saline with Tween-80): 114 % of control

NC(=O)NC(=O)/C=C/C(=O)OCCCl
T/C (dose: 6.25 mg/kg/injection, schedule: Q01DX005 (ip), vehicle: Klucel (hydroxypropylcellulose) (HPC)): 102 % of control
T/C (dose: 12.5 mg/kg/injection, schedule: Q01DX005 (ip), vehicle: Klucel (hydroxypropylcellulose) (HPC)): 89 % of control
T/C (dose: 25.0 mg/kg/injection, schedule: Q01DX005 (ip), vehicle: Klucel (hydroxypropylcellulose) (HPC)): 94 % of control
T/C [9]: 101 % of control

CC(=O)N1c2ccccc2N(C(C)=O)c2nc3ccccc3nc21
T/C [1]: 100 % of control
T/C [2]: 100 % of control
T/C [3]: 100 % of control

CCc1cccc(C)c1NC(=O)C(=O)C(C#N)c1ccc(C)cc1 (centres undefined)
T/C [4]: 99 % of control
T/C [5]: 93 % of control
T/C [6]: 103 % of control

COc1cccc2c1C(=O)c1c(O)c3c(c(O)c1C2=O)C[C@@](O)(c1csc(N)n1)C[C@@H]3OC1CC(N)C(O)C(C)O1 (some centres undefined)
T/C (dose: 1.56 mg/kg/injection, schedule: Q01DX009 (ip), vehicle: water): 150 % of control
T/C (dose: 6.25 mg/kg/injection, schedule: Q01DX009 (ip), vehicle: water): 157 % of control and 160 % of control
T/C (dose: 6.25 mg/kg/injection, schedule: Q04DX003 (ip), vehicle: water): 96 % of control
T/C (dose: 12.5 mg/kg/injection, schedule: Q01DX009 (ip), vehicle: water): 155 % of control and 163 % of control
T/C (dose: 12.5 mg/kg/injection, schedule: Q04DX003 (ip), vehicle: water): 105 % of control and 109 % of control
T/C (dose: 25.0 mg/kg/injection, schedule: Q01DX009 (ip), vehicle: water): 178 % of control
T/C (dose: 25.0 mg/kg/injection, schedule: Q04DX003 (ip), vehicle: water): 118 % of control
T/C (dose: 100.0 mg/kg/injection, schedule: Q04DX003 (ip), vehicle: water): 123 % of control

Cc1nnc2cc3ccccc3cn12
T/C [4]: 89 % of control
T/C [5]: 97 % of control
T/C [6]: 100 % of control

CC(C)(C)C1=CS(=O)(=O)C1
T/C (dose: 1.56 mg/kg/injection, schedule: Q01DX001 (ip), vehicle: saline with Tween-80): 103 % of control
T/C (dose: 3.12 mg/kg/injection, schedule: Q01DX001 (ip), vehicle: saline with Tween-80): 102 % of control

Cc1ccc(S(=O)(=O)SSC(=S)Sc2ccccc2)cc1
T/C [1]: 116 % of control
T/C [2]: 107 % of control
T/C [3]: 109 % of control

NCC(O)c1cccc(C(F)(F)F)c1 (centres undefined)
T/C (dose: 50.0 mg/kg/injection, schedule: Q01DX009 (ip), vehicle: saline): 92 % of control
T/C (dose: 100.0 mg/kg/injection, schedule: Q01DX009 (ip), vehicle: saline): 100 % of control

CC(C)N1C(=O)NC2C1NC(=O)N2C(C)C (centres undefined) (tested in a mixture with another compound)
T/C (dose: 60.0 mg/kg/injection, schedule: Q01DX005 (ip), vehicle: saline with Tween-80): 106 % of control
T/C (dose: 120.0 mg/kg/injection, schedule: Q01DX005 (ip), vehicle: saline with Tween-80): 105 % of control
T/C (dose: 240.0 mg/kg/injection, schedule: Q01DX005 (ip), vehicle: saline with Tween-80): 105 % of control

CSc1cnnc2ccccc12
T/C (dose: 12.5 mg/kg/injection, schedule: Q01DX009 (ip), vehicle: Klucel (hydroxypropylcellulose) (HPC)): 100 % of control and 95 % of control
T/C (dose: 25.0 mg/kg/injection, schedule: Q01DX009 (ip), vehicle: Klucel (hydroxypropylcellulose) (HPC)): 100 % of control and 109 % of control and 88 % of control
T/C [1]: 100 % of control and 87 % of control

Clc1ccc2c(NCC3CCCN4CCCCC34)ccnc2c1 (centres undefined)
T/C [9]: 104 % of control
T/C (dose: 100.0 mg/kg/injection, schedule: Q01DX005 (ip), vehicle: Klucel (hydroxypropylcellulose) (HPC)): 101 % of control
